Experimental data from patent US20150119372A1, “APPLICATION OF 18-METHYL-15SS,16SS-METHYLENE-19-NOR-20-SPIROX-4-EN-3-ONE SYSTEMS IN THE TREATMENT OF MENORRHAGIA, AS WELL AS INTRAUTERINE SYSTEMS CONTAINING 18-METHYL-15SS,16SS-METHYLENE-19-NOR-20-SPIROX-4-EN-3-ONE FOR TREATING UTERINE BLEEDING DISORDERS” (BAYER PHARMA AKTIENGESELLSCHAFT, priority 2012, published 2015).

Assays:
[1] = In vitro (liver) break-down for humans; assay type: in vitro ADME; conditions: human liver in vitro
Method: The rapid in-vitro breakdown in the liver may also indicate rapid in-vivo breakdown, resulting in a very low systemic exposition of 18-methyl-15β,16β-methylene-19-nor-20-spirox-4-en-3-one and 18-Methyl-6α,7α,15β,16β-dimethylene-19-nor-20-spirox-4-en-3-one after administration through an IUS being calculated. The expected substance levels (Css=concentration at steady state) are calculated from the rate of release from the IUS divided by the clearance. Using a dose of 20 μg per day and woman, which corresponds to that of Mirena, gives a calculated systemic exposition (load) for 18-methyl-15β,16β-methylene-19-nor-20-spirox-4-en-3-one and 18-methyl-6α,7α,15β,16β-dimethylene-19-nor-20-spirox-4-en-3-one, which is over 30 times lower in comparison with Mirena®.

[2] = test system: luteinizing hormone (LH); test: Serum LH level in ovary-resected rats carrying IUS (rod), as a sign of systemic effect; assay type: in vivo, rat; conditions: FIG. 2/4
Method: Serum levels of luteinizing hormone (LH) are used for detecting systemic effects of the locally administered progestin. Basal serum-LH levels of ovary-resected rats are elevated compared to the LH levels of intact control animals. Undesired systemic efficacy of the uterine-administered progestin can be detected by a decrease in the LH level.
(§1) Ovary-resected female rats were treated with estradiol (E2) for three days (0.2 μg/day/animal, subcutaneous dosing). On day 4, an IUS (rod) was implanted into the right uterine horn of each animal. The left uterine horn remained untreated for internal comparison. Administration of E2 was continued with a daily dose of 0.1 μg/animal to ensure responsiveness of the uterus (maintaining progesterone-receptor expression) to progestins. Blood was taken for LH level measurements on days 4, 10 and 17.

[3] = test system: uterus; test: Uterine horn weight gain after implantation of progestin-containing IUS (rod) in ovary-resected rats; assay type: in vivo, rat; conditions: IUS (rod) in right uterine horn, FIG. 1/4
Method: (§2) The local uterine action of the progestin compared to systemic side effects (dissociation) was investigated on the basis of studies using rats. The uterus of ovary-resected rats responds to implantation of progestin-containing IUS (rods) with decidualization and weight gain. The local progestin effects were also determined on the basis of changes in gene expression.
as §1

[4] = test system: IGFBP-1; test: Gene expression analysis of marker genes in uterine tissue of rats carrying IUS (rods); assay type: in vivo; conditions: rat uterus, FIG. 3/4
Method: as §2
Ovary-resected female rats were treated with estradiol (E2) for three days (0.2 μg/day/animal, subcutaneous dosing). On day 4, an IUS (rod) was implanted into the right uterine horn of each animal. The left uterine horn remained untreated for internal comparison. Administration of E2 was continued with a daily dose of 0.1 μg/animal to ensure responsiveness of the uterus (maintaining progesterone-receptor expression) to progestins. Blood was taken for LH level measurements on days 4, 10 and 17. […]
Gene expression analysis was carried out with from 50 ng to 200 ng of cDNA per reaction on an SDS7900HT Real.time PCR system (Applied Biosystems, Carlsbad, USA) using TaqMan probes (Applied Biosystems; IGFBP-1 Rn00565713_m1, Cyp26a1 Rn00590308_m1, PPIA Rn00690933_m1) and the Fast Blue qPCR MasterMix Plus (Eurogentec, Liège, Belgium; #RT-QP2X-03+FB). For relative quantification, cyclophilin A (PPIA) was used as an endogenous control. Relative expression levels were calculated according to the comparative delta delta CT method.

[5] = In-vitro metabolic studies (liver); assay type: in vitro ADME; conditions: all in-vitro metabolic studies (liver)
[6] = In vivo break-down in animal species; conditions: all animal species studied in vivo
[7] = biological target: T1, human androgen receptor (Homo sapiens, UniProt P10275); test: hAR transactivation in PC3 cells stably transfected with hAR and MTV-luc reporter gene; assay type: cell-based; conditions: hAR, MTV-luc reporter
T1 construct: expressed in transfected cells; host or cells: PC3 (human prostate carcinoma) cells, stably transfected with hAR and the MTV-luc reporter
T1 sequence (P10275 1-920): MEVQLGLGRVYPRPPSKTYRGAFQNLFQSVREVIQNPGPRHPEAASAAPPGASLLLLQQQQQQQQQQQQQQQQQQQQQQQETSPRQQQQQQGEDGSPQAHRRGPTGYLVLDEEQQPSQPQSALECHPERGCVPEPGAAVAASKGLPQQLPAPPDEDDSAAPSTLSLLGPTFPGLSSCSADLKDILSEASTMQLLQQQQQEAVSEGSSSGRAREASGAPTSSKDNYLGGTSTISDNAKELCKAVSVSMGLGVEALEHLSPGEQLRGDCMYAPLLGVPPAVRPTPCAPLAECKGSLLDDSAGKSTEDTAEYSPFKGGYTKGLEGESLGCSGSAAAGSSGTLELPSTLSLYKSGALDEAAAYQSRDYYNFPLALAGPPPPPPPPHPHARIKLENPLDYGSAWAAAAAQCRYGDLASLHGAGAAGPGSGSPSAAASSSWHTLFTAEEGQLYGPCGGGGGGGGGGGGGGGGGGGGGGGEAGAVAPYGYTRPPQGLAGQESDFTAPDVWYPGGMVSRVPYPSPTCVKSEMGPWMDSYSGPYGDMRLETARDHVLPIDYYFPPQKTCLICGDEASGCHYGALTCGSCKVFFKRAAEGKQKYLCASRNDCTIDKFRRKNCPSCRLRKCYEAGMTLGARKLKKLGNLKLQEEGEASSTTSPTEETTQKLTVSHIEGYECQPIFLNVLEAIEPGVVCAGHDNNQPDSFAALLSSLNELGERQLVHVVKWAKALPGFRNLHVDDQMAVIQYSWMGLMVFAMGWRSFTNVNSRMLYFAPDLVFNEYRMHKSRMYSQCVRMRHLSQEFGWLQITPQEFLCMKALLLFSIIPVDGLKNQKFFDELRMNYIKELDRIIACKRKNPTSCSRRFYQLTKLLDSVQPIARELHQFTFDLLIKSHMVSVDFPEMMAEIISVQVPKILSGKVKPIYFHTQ
Method: For this, different concentrations of the test substances were to cells with stable expression of the human androgen receptor, and activation of the androgen receptor can be detected via a reporter gene.
For transactivation studies, PC3 (human prostate carcinoma) cells which have been stably transfected with hAR and the MTV-luc reporter gene were used. […] The cells were cultured at 37° C. and 5% CO2. The test medium corresponded to the culture medium, except that 10% FCS was replaced with 5% activated carbon-treated FCS (CCS). Cells were seeded in wells of a 96 well plate (“CulturPlate” from Packard #6005180) with 2×10^4 cells/well/200 μl of test medium. The cells were incubated with different concentrations of the test substances, and 80 μl of substrate were measured using the “steadylite HTS Reporter Gene Assay System” from Perkin Elmer.

[8] = Mirena use; cited from earlier work
[9] = dose range tested: compound A 0.6-10 μg per animal and day, compound B 1-45 μg/animal and day

Row | SMILES | break-down rate in vitro (liver) for humans [1] | LH decrease (systemic side effect) ([2]; 10 μg/animal and day dose) | LH decrease (systemic side effect) [2, 9] | local efficacy by way of weight gain in the IUS-carrying uterine horn [3] | rate of release from the IUS at which IGFBP-1 gene expression is induced, lower than with levonorgestrel [4] | break-down rate in in-vitro metabolic studies (liver) [5] | break-down rate in vivo [6] | EC50 [7] | average plasma levels of active ingredient [8]
1 | CC[C@]12CCC3C4CCC(=O)C=C4CCC3C1[C@@H]1C[C@@H]1[C@@]21CCCO1 (stereo partly drawn) [compound A, 18-methyl-15β,16β-methylene-19-nor-20-spirox-4-en-3-one] | Very rapid break-down rates | exception | no LH decrease | dose-dependent local efficacy by way of weight gain | approx. 7 × | very fast break-down rate | very fast break-down rate | – | –
2 | CC[C@]12CCC3C4CCC(=O)C=C4C4CC4C3C1[C@@H]1C[C@@H]1[C@@]21CCCO1 (stereo partly drawn) [compound B, 18-methyl-6α,7α,15β,16β-dimethylene-19-nor-20-spirox-4-en-3-one] | Very rapid break-down rates | – | no LH decrease | dose-dependent local efficacy by way of weight gain | – | very fast break-down rate | very fast break-down rate | 56 nM | –
3 | C#C[C@]1(O)CC[C@H]2[C@@H]3CCC4=CC(=O)CC[C@@H]4[C@H]3CC[C@@]21CC [levonorgestrel] | – | – | – | – | – | – | – | – | around 206 pg/ml
